# According to US9840478B2 (MERCK SHARP & DOHME CORP., priority 2013, dated 2017):
# pIC50: −log10 of the molar value.
# Test system: HIV-1 (H9IIIB strain)
# Experiment: Cell-based HIV infection assay using a reporter (Cell-Based), MT4-GFP cells
# Settings: Human immunodeficiency virus 1, MT4-GFP cells infected with HIV-1 H9IIIB; 50% normal human serum; mean of at least two independent experiments; read-out: Cell-based IP
# Summary of the method: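 IC50 from 4-parameter dose-response of % viral growth inhibition, using the 48 h/24 h infected-cell ratio scaled between DMSO and a protease/integrase/NNRTI triple-drug control. Assay used MT4 cells with HIV-LTR-GFP reporter, pre-infected 24 h with HIV-1 H9IIIB, in 50% normal human serum.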
row,Structure (SMILES),pIC50
1,"O=C(C[C@@H](c1ccc(F)cc1)c1cc(F)cc(F)c1)Nc1cncc(F)c1CC[C@H]1CNCCN1S(=O)(=O)N1CCC(F)CC1 [Example 331, (3S)-3-(3,5-difluorophenyl)-N-[5-fluoro-4-(2-{(2S)-1-[(4-fluoropiperidin-1-yl)sulfonyl]piperazin-2-yl}ethyl)pyridin-3-yl]-3-(4-fluorophenyl)propanamide]",7.72
2,"COC(=O)N[C@H](C(=O)Nc1cccc(F)c1CC[C@H]1CNC[C@H](C)N1S(=O)(=O)c1ccccc1)[C@@H](c1ccc(F)cc1)c1cc(F)cc(F)c1 [Example 95, (βS)-β-(3,5-difluorophenyl)-4-fluoro-N-(3-fluoro-2-{2-[(2S,6S)-6-methyl-1-(phenylsulfonyl)piperazin-2-yl]ethyl}phenyl)-Nα-(methoxycarbonyl)-L-phenylalaninamide]",7.70
3,"CC(Oc1ccccc1)C(=O)N1CCNC[C@@H]1CCc1c(F)cncc1NC(=O)C[C@@H](c1ccc(F)cc1)c1cc(F)cc(F)c1 (stereo partly drawn) [Example 347, (3S)-3-(3,5-difluorophenyl)-N-(5-fluoro-4-{2-[(2S)-1-(2-phenoxypropanoyl)piper-azin-2-yl]ethyl}pyridin-3-yl)-3-(4-fluorophenyl)propanamide]",7.24
4,"C[C@@H]1CNC[C@H](CCc2c(F)cccc2NC(=O)[C@@H](N)[C@@H](c2ccc(Cl)cc2)C2CCOCC2)N1S(C)(=O)=O [Example 160, (βR)-4-chloro-N-(3-fluoro-2-{2-[(2S,6R)-6-methyl-1-(methylsulfonyl)piperazin-2-yl]ethyl}phenyl)-β-(tetrahydro-2H-pyran-4-yl)-L-phenylalaninamide]",6.72
5,"COC(=O)N[C@H](C(=O)Nc1cccc(F)c1CC[C@H]1CNC[C@H](C)N1S(=O)(=O)c1ccccc1)C(c1cccc(F)c1)c1cccc(F)c1 [Example 100, 3-fluoro-N-(3-fluoro-2-{2-[(2S,6S)-6-methyl-1-(phenylsulfonyl)piperazin-2-yl]ethyl}phenyl)-β-(3-fluorophenyl)-Nα-(methoxycarbonyl)-L-phenylalaninamide]",7.52
6,"COc1ccc(S(=O)(=O)N2[C@@H](CCc3c(F)cncc3NC(=O)[C@@H](N)[C@@H](c3ccc(F)cc3)c3cc(F)cc(F)c3)CNC[C@@H]2C)cc1 [Example 244, (βS)-β-(3,5-difluorophenyl)-4-fluoro-N-[5-fluoro-4-(2-{(2S,6S)-1-[(4-methoxyphenyl)sulfonyl]-6-methylpiperazin-2-yl}ethyl)pyridin-3-yl]-L-phenylalaninamide]",8.23
7,"C[C@H]1CNC[C@H](CCc2c(F)cccc2NC(=O)[C@@H](N)C2(c3cc(F)cc(F)c3)CCOCC2)N1S(=O)(=O)c1ccccc1 [Example 278, (2S)-2-amino-2-[4-(3,5-difluorophenyl)tetrahydro-hydro-2H-pyran-4-yl]-N-(3-fluoro-2-{2-[(2S,6S)-6-methyl-1-(phenylsulfonyl)piperazin-2-yl]ethyl}phenyl) ethanamide]",6.85
8,"COc1ccc([C@H](c2ccc(Cl)cc2)[C@H](N)C(=O)Nc2cccc(F)c2CC[C@H]2CNC[C@H](C)N2S(=O)(=O)C2CC2)cn1 [Example 150, (βS)-4-chloro-N-(2-{2-[(2S,6S)-1-(cyclopropylsulfonyl)-6-methylpiperazin-2-yl]ethyl}-3-fluorophenyl)-β-(6-methoxypyridin-3-yl)-L-phenylalaninamide]",7.59
9,"COC(=O)N[C@H](C(=O)Nc1cccc(F)c1CC[C@H]1CNC[C@H](C)N1S(=O)(=O)c1ccccc1)[C@@H](Cc1ccc(F)cc1)c1ccc(Cl)cc1 [Example 194, (βS)-4-chloro-β-(4-fluorobenzyl)-N-(3-fluoro-2-{2-[(2S,6S)-6-methyl-1-(phenylsulfonyl)piperazin-2-yl]ethyl}phenyl)-Nα-(methoxycarbonyl)-L-phenylalaninamide]",7.47
10,"COC(=O)N[C@H](C(=O)Nc1cncc(F)c1CC[C@H]1CNCCN1S(=O)(=O)c1ccccc1)C1(c2ccc(Cl)cc2)CCOCC1 [Example 71, methyl {(1S)-1-[4-(4-chlorophenyl)tetrahydro-2H-pyran-4-yl]-2-[(5-fluoro-4-{2-[(2S)-1-(phenylsulfonyl)piperazin-2-yl]ethyl}pyridin-3-yl)amino]-2-oxoethyl} carbamate]",7.96
11,"O=C(C[C@@H](c1ccc(F)cc1)c1cc(F)cc(F)c1)Nc1cncc(F)c1CC[C@H]1CNCCN1S(=O)(=O)CC1CC1 [Example 302, (3S)-N-[4-(2-{(2S)-1-[(cyclopropylmethyl)sul-fonyl]piperazin-2-yl}ethyl)-5-fluoropyridin-3-yl]-3-(3,5-difluorophenyl)-3-(4-fluorophenyl)propanamide]",7.62
12,"COC(=O)N[C@H](C(=O)Nc1cccc(F)c1CC[C@H]1CNC[C@@H](C)N1S(=O)(=O)c1ccccc1Cl)[C@@H](c1ccc(F)cc1)c1cc(F)cc(F)c1 [Example 232, (βS)-N-[2-(2-{(2S,6R)-1-[(2-chlorophenyl)sulfonyl]-6-methylpiperazin-2-yl}ethyl)-3-fluorophenyl]-β-(3,5-difluorophenyl)-4-fluoro-Nα-(methoxycarbonyl)-L-phenylalaninamide]",6.72
13,"C[C@@H]1CNC[C@H](CCc2c(F)cccc2NC(=O)[C@@H](N)[C@@H](c2ccc(Cl)cc2)c2cccc(F)c2)N1S(=O)(=O)C1CC1 [Example 204, (βS)-4-chloro-N-(2-{2-[(2S,6R)-1-(cyclopropylsulfonyl)-6-methylpiperazin-2-yl]ethyl}-3-fluorophenyl)-β-(3-fluorophenyl)-L-phenylalaninamide]",7.10
14,"COc1ccc(S(=O)(=O)N2[C@@H](CCc3c(F)cccc3NC(=O)[C@@H](N)[C@@H](c3cccc(Cl)c3)C(C)C)CNC[C@@H]2C)cc1 [Example 249, (βR)-3-chloro-N-[3-fluoro-2-(2-{(2S,6S)-1-[(4-methoxyphenyl)sulfonyl]-6-methylpiperazin-2-yl}ethyl)phenyl]-β-(1-methylethyl)-L-phenylalaninamide]",7.28
15,"C[C@H]1CNC[C@H](CCc2c(F)cccc2NC(=O)[C@@H](N)[C@@H](c2ccc(Cl)cc2)C2CCOCC2)N1S(C)(=O)=O [Example 121, (βR)-4-chloro-N-(3-fluoro-2-{2-[(2S,6S)-6-methyl-1-(methylsulfonyl)piperazin-2-yl]ethyl}phenyl)-β-(tetrahydro-2H-pyran-4-yl)-L-phenylalaninamide]",7.14
16,"COC(=O)N[C@H](C(=O)Nc1cccc(F)c1CC[C@H]1CNC[C@H](C)N1S(=O)(=O)c1ccccc1)[C@@H](c1ccc(Cl)cc1)c1cccc(F)c1 [Example 185, (βS)-4-chloro-N-(3-fluoro-2-{2-[(2S,6S)-6-methyl-1-(phenylsulfonyl)piperazin-2-yl]ethyl}phenyl)-β-(3-fluorophenyl)-Nα-(methoxycarbonyl)-L-phenylalaninamide]",7.55
17,"O=C(CC(c1ccc(F)cc1)c1ccc(F)cc1)Nc1cccc(F)c1CC[C@H]1CNCCN1S(=O)(=O)c1ccccc1 [Example 60, 3,3-bis(4-fluorophenyl)-N-(3-fluoro-2-{2-[(2S)-1-(phenylsulfonyl)piperazin-2-yl]ethyl}phenyl)propanamide]",7.57
18,"CS(=O)(=O)N1C(COCc2ccccc2)CNC[C@@H]1CCc1c(F)cccc1NC(=O)[C@@H](N)[C@@H](Cc1ccc(F)cc1)c1ccc(Cl)cc1 (stereo partly drawn) [Example 226, (βS)-N-(2-{2-[(2S)-6-[(benzyloxy)methyl]-1-(methylsulfonyl)piperazin-2-yl]ethyl}-3-fluorophenyl)-4-chloro-β-(4-fluorobenzyl)-L-phenylalaninamide]",5.96
19,"COC(=O)N[C@H](C(=O)Nc1cccc(F)c1CC[C@H]1CNCCN1S(=O)(=O)c1ccccc1)[C@@H](c1ccc(Cl)cc1)c1cccc(F)c1 [Example 52, (βS)-4-chloro-β-(3-fluorophenyl)-N-(3-fluoro-2-{2-[(2S)-1-(phenylsulfonyl)piperazin-2-yl]ethyl}phenyl)-Nα-(methoxycarbonyl)-L-phenylalaninamide]",8.04
20,"N[C@H](C(=O)Nc1cccc(F)c1CC[C@H]1CNCC2(CC2)N1C(=O)COc1ccccc1)C(c1ccc(F)cc1)c1ccc(F)cc1 [Example 368, (S)-2-amino-N-(3-fluoro-2-(2-((S)-4-(2-phenoxyacetyl)-4,7-diazaspiro[2.5]octan-5-yl)ethyl)phenyl)-3,3-bis(4-fluorophenyl)propanamide]",5.82
21,"COC(=O)N[C@H](C(=O)Nc1cccc(F)c1CC[C@H]1CNC[C@H](C)N1S(=O)(=O)C1CC1)[C@@H](c1ccc(Cl)cc1)c1ccc(OC)nc1 [Example 151, (βS)-4-chloro-N-(2-{2-[(2S,6S)-1-(cyclopropylsulfonyl)-6-methylpiperazin-2-yl]ethyl}-3-fluorophenyl)-Nα-(methoxycarbonyl)-β-(6-methoxypyridin-3-yl)-L-phenylalaninamide]",7.77
22,"C[C@H]1CNC[C@H](CCc2c(F)cccc2NC(=O)CC(c2ccc(F)cc2)c2ccc(F)cc2)N1S(=O)(=O)c1ccccc1 [Example 92, N-(3-fluoro-2-{2-[(2S,6S)-6-methyl-1-(phenylsulfonyl)piperazin-2-yl]ethyl}phenyl)-3,3-bis(4-fluorophenyl) propanamide]",7.77
23,"C[C@@H]1CNC[C@H](CCc2c(F)cccc2NC(=O)[C@@H](N)[C@@H](c2ccc(F)c(F)c2)C2CCOCC2)N1S(=O)(=O)c1ccccc1 [Example 288, (βR)-3,4-difluoro-N-(3-fluoro-2-{2-[(2S,6R)-6-methyl-1-(phenylsulfonyl)piperazin-2-yl]ethyl}phenyl)-β-(tetrahydro-2H-pyran-4-yl)-L-phenylalaninamide]",7.64
24,"COC(=O)N[C@H](C(=O)Nc1cccc(F)c1CC[C@H]1CNC[C@H](C)N1S(=O)(=O)C1CC1)C(c1cccc(F)c1)c1cccc(F)c1 [Example 159, N-(2-{2-[(2S,6S)-1-(cyclopropylsulfonyl)-6-methylpiperazin-2-yl]ethyl}-3-fluorophenyl)-3-fluoro-β-(3-fluorophenyl)-Nα-(methoxycarbonyl)-L-phenylalaninamide]",7.38
